In ChEMBL document CHEMBL1201862, “PubChem BioAssay data set” (2004):
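Grown in 96-well plates, cells were treated for 48 hours with each compound at five concentrations. Insufficient inhibition: endpoint recorded as highest concentration tested. GI50 marks 50% less growth.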 Active and inactive are the calls of the source. Cut-off read from the data, not from the text of the source: active = GI50 up to about 1.1 µM and inactive = higher.

Experiments:
Test in all cases: inhibition of tumour cell growth, NCI panel, 48 h
[1] = test system: NCI-H226
[2] = test system: BT-549
[3] = test system: U-251
[4] = test system: SK-MEL-28
[5] = test system: OVCAR-3
[6] = test system: IGROV-1
[7] = test system: SN12C
[8] = test system: SF-295
[9] = test system: MOLT-4
[10] = test system: TK-10
[11] = test system: HCC 2998
[12] = test system: M14
[13] = test system: SF-268
[14] = test system: K562
[15] = test system: CAKI-1
[16] = test system: HOP-62
[17] = test system: MCF7
[18] = test system: SF-539
[19] = test system: HT-29
[20] = test system: SNB-75
[21] = test system: MDA-MB-231
[22] = test system: A498
[23] = test system: SR
[24] = test system: NCI/ADR-RES
[25] = test system: NCI-H23
[26] = test system: SK-OV-3
[27] = test system: DU-145
[28] = test system: UACC-257
[29] = test system: HCT-15
[30] = test system: OVCAR-8
[31] = test system: OVCAR-5
[32] = test system: Hs-578T
[33] = test system: RXF 393
[34] = test system: CCRF-CEM
[35] = test system: UACC-62
[36] = test system: OVCAR-4
[37] = test system: COLO 205
[38] = test system: KM12
[39] = test system: SW-620
[40] = test system: EKVX
[41] = test system: T47D
[42] = test system: NCI-H522
[43] = test system: A549
[44] = test system: MDA-N
[45] = test system: SK-MEL-2
[46] = test system: UO-31
[47] = test system: HCT-116
[48] = test system: Malme-3M
[49] = test system: NCI-H460
[50] = test system: ACHN
[51] = test system: HL-60
[52] = test system: PC-3
[53] = test system: SNB-19
[54] = test system: 786-0
[55] = test system: SK-MEL-5
[56] = test system: RPMI-8226
[57] = test system: HOP-92
[58] = test system: LOX IMVI
[59] = test system: MDA-MB-435

O/N=N/c1ccc([SH2]c2ccc3ccccc3c2)cn1
GI50 [1]: 31.6 µM (inactive)
GI50 [2]: 23 µM (inactive)
GI50 [3]: 19.3 µM (inactive)
GI50 [4]: 32.7 µM (inactive)
GI50 [5]: 43.8 µM (inactive)
GI50 [6]: 32.7 µM (inactive)
GI50 [7]: 20.5 µM (inactive)
GI50 [8]: 25.8 µM (inactive)
GI50 [9]: 1.62 µM (inactive)
GI50 [10]: 28.6 µM (inactive)
GI50 [11]: 13.4 µM (inactive)
GI50 [12]: 19.3 µM (inactive)
GI50 [13]: 22.3 µM (inactive)
GI50 [14]: 16.8 µM (inactive)
GI50 [15]: 17.7 µM (inactive)
GI50 [16]: 15.1 µM (inactive)
GI50 [17]: 17.9 µM (inactive)
GI50 [18]: 41.9 µM (inactive)
GI50 [19]: 34 µM (inactive)
GI50 [20]: 20.2 µM (inactive)
GI50 [21]: 30.1 µM (inactive)
GI50 [22]: 57.9 µM (inactive)
GI50 [23]: 21.8 µM (inactive)
GI50 [24]: 19.1 µM (inactive)
GI50 [25]: 12.2 µM (inactive)
GI50 [26]: 43.9 µM (inactive)
GI50 [27]: 17.1 µM (inactive)
GI50 [28]: 36.1 µM (inactive)
GI50 [29]: 17.1 µM
GI50 [30]: 19.1 µM (inactive)
GI50 [31]: 32.7 µM (inactive)
GI50 [32]: 43 µM (inactive)
GI50 [33]: < 0.01 µM (active)
GI50 [34]: 3.04 µM (inactive)
GI50 [35]: 27.6 µM (inactive)
GI50 [36]: > 100 µM (inactive)
GI50 [37]: 20.2 µM (inactive)
GI50 [38]: 41.4 µM (inactive)
GI50 [39]: 28.3 µM (inactive)
GI50 [40]: 23.6 µM (inactive)
GI50 [41]: 20.6 µM (inactive)
GI50 [42]: 17.5 µM (inactive)
GI50 [43]: 33 µM (inactive)
GI50 [44]: 31.4 µM (inactive)
GI50 [45]: 15.4 µM (inactive)
GI50 [46]: 24.6 µM (inactive)
GI50 [47]: 15 µM (inactive)
GI50 [48]: 0.955 µM (active)
GI50 [49]: 15.4 µM (inactive)
GI50 [50]: 18.6 µM (inactive)
GI50 [51]: 3.97 µM (inactive)
GI50 [52]: 8.85 µM (inactive)
GI50 [53]: 40.2 µM (inactive)
GI50 [54]: 31.3 µM (inactive)
GI50 [55]: 16.3 µM (inactive)

Nc1ncnc2c1ncn2C1OC(CO)C(O)C1N (stereo not drawn)
GI50 [1]: > 100 µM (inactive)
GI50 [2]: > 100 µM (inactive)
GI50 [3]: > 100 µM (inactive)
GI50 [56]: > 100 µM (inactive)
GI50 [4]: > 100 µM (inactive)
GI50 [5]: > 100 µM (inactive)
GI50 [6]: > 100 µM (inactive)
GI50 [7]: > 100 µM (inactive)
GI50 [8]: > 100 µM (inactive)
GI50 [9]: > 100 µM (inactive)
GI50 [10]: > 100 µM (inactive)
GI50 [57]: > 100 µM (inactive)
GI50 [12]: > 100 µM (inactive)
GI50 [13]: > 100 µM (inactive)
GI50 [14]: > 100 µM (inactive)
GI50 [15]: > 100 µM (inactive)
GI50 [16]: > 100 µM (inactive)
GI50 [18]: > 100 µM (inactive)
GI50 [19]: > 100 µM (inactive)
GI50 [20]: > 100 µM (inactive)
GI50 [21]: > 100 µM (inactive)
GI50 [22]: > 100 µM (inactive)
GI50 [23]: > 100 µM (inactive)
GI50 [24]: > 100 µM (inactive)
GI50 [25]: > 100 µM (inactive)
GI50 [26]: > 100 µM (inactive)
GI50 [27]: > 100 µM (inactive)
GI50 [28]: > 100 µM (inactive)
GI50 [29]: > 100 µM
GI50 [30]: > 100 µM (inactive)
GI50 [31]: > 100 µM (inactive)
GI50 [32]: 0.08 µM (active)
GI50 [33]: > 100 µM (inactive)
GI50 [35]: > 100 µM (inactive)
GI50 [58]: > 100 µM (inactive)
GI50 [36]: > 100 µM (inactive)
GI50 [37]: > 100 µM (inactive)
GI50 [38]: > 100 µM (inactive)
GI50 [39]: > 100 µM (inactive)
GI50 [59]: > 100 µM (inactive)
GI50 [40]: > 100 µM (inactive)
GI50 [41]: > 100 µM (inactive)
GI50 [42]: > 100 µM (inactive)
GI50 [43]: > 100 µM (inactive)
GI50 [44]: > 100 µM (inactive)
GI50 [45]: > 100 µM (inactive)
GI50 [46]: > 100 µM (inactive)
GI50 [47]: > 100 µM (inactive)
GI50 [48]: > 100 µM (inactive)
GI50 [49]: > 100 µM (inactive)
GI50 [50]: > 100 µM (inactive)
GI50 [51]: > 100 µM (inactive)
GI50 [52]: > 100 µM (inactive)
GI50 [53]: > 100 µM (inactive)
GI50 [54]: > 100 µM (inactive)
GI50 [55]: > 100 µM (inactive)

CC(C)(C)OC(=O)NC1CCCC1C(=O)C1=CCCC1 (stereo not drawn)
GI50 [1]: > 100 µM (inactive)
GI50 [2]: > 100 µM (inactive)
GI50 [3]: > 100 µM (inactive)
GI50 [56]: > 100 µM (inactive)
GI50 [4]: > 100 µM (inactive)
GI50 [5]: > 100 µM (inactive)
GI50 [6]: 33.4 µM (inactive)
GI50 [7]: 53.3 µM (inactive)
GI50 [9]: > 100 µM (inactive)
GI50 [11]: 88.7 µM (inactive)
GI50 [57]: > 100 µM (inactive)
GI50 [12]: > 100 µM (inactive)
GI50 [13]: > 100 µM (inactive)
GI50 [14]: > 100 µM (inactive)
GI50 [16]: > 100 µM (inactive)
GI50 [19]: > 100 µM (inactive)
GI50 [20]: 72.9 µM (inactive)
GI50 [21]: 82.8 µM (inactive)
GI50 [22]: > 100 µM (inactive)
GI50 [23]: 90.8 µM (inactive)
GI50 [24]: > 100 µM (inactive)
GI50 [25]: 85.7 µM (inactive)
GI50 [26]: > 100 µM (inactive)
GI50 [27]: > 100 µM (inactive)
GI50 [28]: > 100 µM (inactive)
GI50 [29]: 59 µM
GI50 [30]: > 100 µM (inactive)
GI50 [31]: > 100 µM (inactive)
GI50 [32]: 44 µM (inactive)
GI50 [33]: > 100 µM (inactive)
GI50 [34]: 74.6 µM (inactive)
GI50 [35]: 70.1 µM (inactive)
GI50 [58]: 50.6 µM (inactive)
GI50 [36]: 49.1 µM (inactive)
GI50 [37]: > 100 µM (inactive)
GI50 [38]: 92 µM (inactive)
GI50 [39]: > 100 µM (inactive)
GI50 [59]: 90.6 µM (inactive)
GI50 [41]: 28.6 µM (inactive)
GI50 [43]: > 100 µM (inactive)
GI50 [44]: 53 µM (inactive)
GI50 [45]: > 100 µM (inactive)
GI50 [47]: 97.3 µM (inactive)
GI50 [49]: > 100 µM (inactive)
GI50 [50]: > 100 µM (inactive)
GI50 [51]: > 100 µM (inactive)
GI50 [52]: > 100 µM (inactive)
GI50 [53]: > 100 µM (inactive)
GI50 [54]: > 100 µM (inactive)
GI50 [55]: 65 µM (inactive)

Cc1ccc(S(=O)(=O)NC(=O)NC(CC(=O)O)C(=O)O)cc1 (stereo not drawn)
GI50 [2]: > 100 µM (inactive)
GI50 [3]: > 100 µM (inactive)
GI50 [56]: > 100 µM (inactive)
GI50 [4]: > 100 µM (inactive)
GI50 [6]: > 100 µM (inactive)
GI50 [7]: > 100 µM (inactive)
GI50 [8]: > 100 µM (inactive)
GI50 [9]: > 100 µM (inactive)
GI50 [10]: > 100 µM (inactive)
GI50 [57]: > 100 µM (inactive)
GI50 [12]: > 100 µM (inactive)
GI50 [13]: > 100 µM (inactive)
GI50 [14]: > 100 µM (inactive)
GI50 [16]: > 100 µM (inactive)
GI50 [17]: > 100 µM (inactive)
GI50 [18]: > 100 µM (inactive)
GI50 [19]: > 100 µM (inactive)
GI50 [20]: > 100 µM (inactive)
GI50 [21]: > 100 µM (inactive)
GI50 [23]: > 100 µM (inactive)
GI50 [24]: > 100 µM (inactive)
GI50 [25]: > 100 µM (inactive)
GI50 [26]: > 100 µM (inactive)
GI50 [27]: > 100 µM (inactive)
GI50 [28]: > 100 µM (inactive)
GI50 [29]: > 100 µM
GI50 [30]: > 100 µM (inactive)
GI50 [31]: > 100 µM (inactive)
GI50 [32]: > 100 µM (inactive)
GI50 [33]: > 100 µM (inactive)
GI50 [34]: > 100 µM (inactive)
GI50 [35]: > 100 µM (inactive)
GI50 [58]: > 100 µM (inactive)
GI50 [36]: > 100 µM (inactive)
GI50 [37]: > 100 µM (inactive)
GI50 [38]: > 100 µM (inactive)
GI50 [39]: > 100 µM (inactive)
GI50 [41]: > 100 µM (inactive)
GI50 [42]: > 100 µM (inactive)
GI50 [43]: > 100 µM (inactive)
GI50 [44]: > 100 µM (inactive)
GI50 [45]: > 100 µM (inactive)
GI50 [46]: > 100 µM (inactive)
GI50 [47]: > 100 µM (inactive)
GI50 [48]: > 100 µM (inactive)
GI50 [49]: > 100 µM (inactive)
GI50 [50]: > 100 µM (inactive)
GI50 [51]: > 100 µM (inactive)
GI50 [52]: > 100 µM (inactive)
GI50 [53]: > 100 µM (inactive)
GI50 [54]: > 100 µM (inactive)
GI50 [55]: > 100 µM (inactive)
